“Also recorded” adds a separate entry of the source. Counter-ions that a name gives are not always drawn. Like-named read-outs stand apart in the source and are kept apart here.
Key:
PC-3 cells = assay: MTT cytotoxicity assay against PC-3 cells; type: cell-based, human; conditions: for IC50: 96 h exposure, read-out: IC50 (μM), anti-proliferative activity against PC-3 cells
Procedure: The antitumor activities of G1–G13 were evaluated by MTT (3-(4,5-dimethylthiazol-2-yl)-2,5-diphenyltetrazolium bromide) assay using a human PC-3 cell line.
The in vitro cytotoxicity activity of G1–G13 were measured by the colorimetric MTT assay. Briefly, PC-3 cells were incubated in 96-well plates at a density of 3 × 10^3 cells/well for 24 h. Then, the cells were exposed to various concentrations of tested compounds, INH and DOX, respectively for 96 h. After incubation, 10 μL of MTT (5 mg/mL) solution was added and the plates were incubated for 4 h at 37 °C. Next, the medium was replaced with 200 μL of DMSO to dissolve the formed formazan crystals. The absorbance was measured at 570 nm on a microplate reader (Synergy-HT, BioTek Instruments, Winooski, VT, USA).

[1] = target: T1, Monoamine oxidase A (MAOA) (Homo sapiens, UniProt P21397); assay: MAOA inhibition activity assay in LNCaP cells (Cell MAOA Assay Kit); type: cell-based
T1 construct: the prostate cancer cell line LNCaP expressed a relatively high level of MAOA; endogenous in cells; host or cells: LNCaP cells (Cell Bank of the Chinese Academy of Sciences, Shanghai)
T1 sequence (P21397 1-527): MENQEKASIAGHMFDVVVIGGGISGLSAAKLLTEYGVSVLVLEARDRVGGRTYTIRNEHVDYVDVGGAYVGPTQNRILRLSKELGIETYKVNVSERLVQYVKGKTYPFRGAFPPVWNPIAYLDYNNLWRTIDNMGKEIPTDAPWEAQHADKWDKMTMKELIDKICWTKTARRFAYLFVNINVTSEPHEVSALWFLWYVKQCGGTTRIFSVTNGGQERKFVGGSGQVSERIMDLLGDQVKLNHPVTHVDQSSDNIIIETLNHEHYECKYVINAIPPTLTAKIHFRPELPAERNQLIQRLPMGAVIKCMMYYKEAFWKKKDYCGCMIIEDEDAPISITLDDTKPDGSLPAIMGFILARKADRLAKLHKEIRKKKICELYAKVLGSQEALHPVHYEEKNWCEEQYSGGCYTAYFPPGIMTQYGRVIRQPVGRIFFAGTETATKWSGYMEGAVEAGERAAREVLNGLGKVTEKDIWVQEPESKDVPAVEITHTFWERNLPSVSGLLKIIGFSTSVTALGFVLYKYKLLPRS
Procedure: Because the prostate cancer cell line LNCaP expressed a relatively high level of MAOA [17, 40], we tested the inhibitory effect of compounds G10, G11, and G12 on MAOA using LNCaP cells (Table 2).
In a 10-mm dish, 6 × 10^5 LNCaP cells were plated in medium supplemented with 10% FBS. […] The reaction products were extracted and MAOA activities were measured as described in the introduction for the Cell MAOA Assay Kit (Shanghai Chengong Biotechnology, CHN, Lot No: 1-201838-10). The MAOA activity was assessed based on the substrate p-tyramine level after treatment with MAOB inhibitor pargyline.

[2] = LNCaP cells, 48 h treatment, substrate p-tyramine, with MAOB inhibitor pargyline, read-out: IC50 (nM), MAOA inhibitory activity in LNCaP cells

Row | Molecule | IC50 (PC-3 cells; Homo sapiens) | other results
1 | COc1ccc2c(c1)C(C)(C)C(=CC=C1CCCC(C=CC3=[N+](CCCCCC(=O)NNC(=O)c4ccncc4)c4ccc(OC)cc4C3(C)C)=C1Cl)N2CCCCCC(=O)O [Compound G1, 2-(2-(3-(2-(5-Methoxyl-1-(5-carboxypentyl)-3,3-dimethyl-indol-2-ylidene)ethylidene)-2-chloro-1-cyclohexen-1-yl)vinyl)-5-methoxyl-1-(6-(2-isonicotinoylhydrazinyl)-6-oxohexyl)-3,3-dimethyl-3H-indol-1-ium bromide] | 18.4 µM | 
2 | 2-(7-(5-methoxyl-1-(5-carboxypentyl)-1,3-dihydro-5-ethyl-3-methyl-2H-indol-2-ylidene)-1,3,5-heptatrien-1-yl)-5-methoxyl-1-(6-(2-isonicotinoylhydrazinyl)-6-oxohexyl)-5-ethyl-3-methyl-3H-indol-1-ium bromide [Compound G6] |  | IC50 (PC-3 cells): 37.1 µM
3 | COc1ccc2c(c1)C(C)(C)\C(=C/C=C/C=C/C=C/C1=[N+](CCCCCC(=O)NNC(=O)c3ccncc3)c3ccccc3C1(C)C)N2CCCCS(=O)(=O)[O-] [Compound G9, 3H-Indolium,2-(7-(5-methoxy-1-(4-sulfonatobutyl)-3,3-dimethyl-2H-indolin-2-ylidene)-1,3,5-heptatrien-1-yl)-1-(6-(2-isonicotinoylhydrazinyl)-6-oxohexyl)-1,3-dihydro-3,3-dimethyl-, inner salt] | 90.5 µM | 
4 | COc1cccc2c1C(=O)c1c(O)c3c(c(O)c1C2=O)C[C@@](O)(C(=O)CO)C[C@@H]3O[C@H]1C[C@H](N)[C@H](O)[C@H](C)O1 [DOX, doxorubicin, reference compound] | 0.21 µM | 
5 | CC1(C)C(=CC=C2CCCC(C=CC3=[N+](CCCCCC(=O)NNC(=O)c4ccncc4)c4ccc(Br)cc4C3(C)C)=C2Cl)N(CCCCCC(=O)O)c2ccc(Br)cc21 [Compound G2, 2-(2-(3-(2-(5-Bromo-1-(5-carboxypentyl)-3,3-dimethyl-indol-2-ylidene)ethylidene)-2-chloro-1-cyclohexen-1-yl)vinyl)-5-bromo-1-(6-(2-isonicotinoylhydrazinyl)-6-oxohexyl)-3,3-dimethyl-3H-indol-1-ium bromide] | 75 µM | 
6 | CCCCN1/C(=C/C=C/C=C/C=C/C2=[N+](CCCCCC(=O)NNC(=O)c3ccncc3)c3ccc(Br)cc3C2(C)C)C(C)(C)c2cc(OC)ccc21 [Compound G12] | 1.55 µM | MAOA inhibitory activity (in words) ([1]; LNCaP cells): moderate MAOA inhibitory activities; IC50 [1, 2]: 661 nM
7 | CCC1(C)C(/C=C/C2=C(Cl)C(=C/C=C3/N(CCCCCC(=O)O)c4ccc(OC)cc4C3(C)CC)/CCC2)=[N+](CCCCCC(=O)NNC(=O)c2ccncc2)c2ccc(OC)cc21 (centres unmarked) [Compound G3, 2-(2-(3-(2-(5-Methoxyl-1-(5-carboxypentyl)-5-ethyl-3-methyl-indol-2-ylidene)ethylidene)-2-chloro-1-cyclohexen-1-yl)vinyl)-5-methoxyl-1-(6-(2-isonicotinoylhydrazinyl)-6-oxohexyl)-5-ethyl-3-methyl-3H-indol-1-ium bromide] | 13.3 µM | 
8 | CCCCN1/C(=C/C=C/C=C/C=C/C2=[N+](CCCC(=O)NNC(=O)c3ccncc3)c3ccc(C)cc3C2(C)C)C(C)(C)c2cc(OC)ccc21 [Compound G10, 2-(7-(5-Methoxy-1-butyl-3,3,5-trimethyl-2H-indolin-2-ylidene)-1,3,5-heptatrien-1-yl)-1-(6-(2-isonicotinoylhydrazinyl)-4-oxobutyl)-1,3-dihydro-3,3-dimethyl-3H-indolium bromide] | 0.85 µM | MAOA inhibitory activity (in words) ([1]; LNCaP cells): moderate MAOA inhibitory activities; IC50 [1, 2]: 221 nM
9 | CCCCN1/C(=C/C=C/C=C/C=C/C2=[N+](CCCCCC(=O)NNC(=O)c3ccncc3)c3ccc(C)cc3C2(C)C)C(C)(C)c2cc(OC)ccc21 [Compound G11] | 0.4 µM | MAOA inhibitory activity (in words) ([1]; LNCaP cells): moderate MAOA inhibitory activities; IC50 [1, 2]: 469 nM
10 | CC1(C)C(/C=C/C=C/C=C/C=C2/N(CCCCCC(=O)NNC(=O)c3ccncc3)c3ccc4ccccc4c3C2(C)C)=[N+](CCCCS(=O)(=O)[O-])c2ccc3ccccc3c21 [Compound G13, 1H-Benz[e]indolium,2-(7-(3,3-dimethyl-1-(4-sulfonatobutyl)benz(e)indolin-2-ylidene)hepta-1,3,5-trien-1-yl)-1-(6-(2-isonicotinoylhydrazinyl)-6-oxohexyl)-1,3-dihydro-3,3-dimethyl-, inner salt] | 10.5 µM | 
11 | Cc1ccc2c(c1)C(C)(C)C(=CC=CC=CC=CC1=[N+](CCCCCC(=O)NNC(=O)c3ccncc3)c3ccc(C)cc3C1(C)C)N2CCCCCC(=O)O [Compound G4, 2-(7-(1-(5-carboxypentyl)-1,3-dihydro-3,3,5-trimethyl-2H-indol-2-ylidene)-1,3,5-heptatrien-1-yl)-1-(6-(2-isonicotinoylhydrazinyl)-6-oxohexyl)-3,3,5-trimethyl-3H-indol-1-ium bromide] | 46.7 µM | 
12 | NNC(=O)c1ccncc1 [INH, isoniazid, reference compound] | > 200 µM | cytotoxicity / antitumor activity against PC-3 cells (in words) (PC-3 cells): negligible cytotoxicity; also recorded: negligible in vitro antitumor activity; IC50 [1]: > 1000 nM
13 | COc1ccc2c(c1)C(C)(C)C(/C=C/C=C/C=C/C=C1/N(CCCCS(=O)(=O)[O-])c3ccc(OC)cc3C1(C)C)=[N+]2CCCCCC(=O)NNC(=O)c1ccncc1 [Compound G8, 3H-Indolium,2-(7-(5-methoxy-1-(4-sulfonatobutyl)-3,3-dimethyl-2H-indolin-2-ylidene)-1,3,5-heptatrien-1-yl)-5-methoxy-1-(6-(2-isonicotinoylhydrazinyl)-6-oxohexyl)-1,3-dihydro-3,3-dimethyl-, inner salt] | 102 µM | 
14 | COc1ccc2c(c1)C(C)(C)\C(=C/C=C/C=C/C=C/C1=[N+](CCCCCC(=O)NNC(=O)c3ccncc3)c3ccc(C)cc3C1(C)C)N2CCCCS(=O)(=O)[O-] [Compound G7, 3H-Indolium,2-(7-(5-methoxy-1-(4-sulfonatobutyl)-3,3-dimethyl-2H-indolin-2-ylidene)-1,3,5-heptatrien-1-yl)-1-(6-(2-isonicotinoylhydrazinyl)-6-oxohexyl)-1,3-dihydro-3,3,5-trimethyl-, inner salt] | 28.6 µM | 
15 | COc1ccc2c(c1)C(C)(C)C(=CC=CC=CC=CC1=[N+](CCCCCC(=O)NNC(=O)c3ccncc3)c3ccc(OC)cc3C1(C)C)N2CCCCCC(=O)O [Compound G5, 2-(7-(5-methoxyl-1-(5-carboxypentyl)-1,3-dihydro-3,3-dimethyl-2H-indol-2-ylidene)-1,3,5-heptatrien-1-yl)-5-methoxyl-1-(6-(2-isonicotinoylhydrazinyl)-6-oxohexyl)-3,3-dimethyl-3H-indol-1-ium bromide] | 5.06 µM | 
